Paper PMC11818404, “Experimental and Computational Investigation of the Target and Mechanisms of Gelsemium Alkaloids in the Central Nervous System” (International Journal of Molecular Sciences, 2025)
Where two headings read alike, the source gives them in different places.

How the values were obtained:
α1β2γ2 GABAAR = target: T1, α1β2γ2 GABAAR (Homo sapiens, UniProt P14867+P18507+P47870); assay: Whole-cell patch-clamp of GABA-evoked currents, transfected HEK293 cells; type: cell-based; conditions: for Hillslope: GABAAR concentration-response curve; for percentage change in peak current modulation / IC50: GABAAR; for percentage change in peak current modulation: alkaloid 300 µM co-applied with subsaturated GABA, mean ± SE; for IC50: reduction of GABA-evoked current, n = 4
T1 construct: expressed in transfected cells; host or cells: HEK293

α1 GlyR = target: T2, α1 GlyR (Homo sapiens, UniProt P23415); assay: Whole-cell patch-clamp of glycine-evoked currents, transfected HEK293 cells; type: cell-based; conditions: for activity on GlyR currents (in words): GlyRs (α1 and α1β), single concentration 300 µM; for percentage change in peak current modulation: alkaloid 300 µM co-applied with subsaturated glycine, mean ± SE
T2 construct: expressed in transfected cells; host or cells: HEK293
T2 sequence (P23415 29-449 isoform P23415-2 limits assumed): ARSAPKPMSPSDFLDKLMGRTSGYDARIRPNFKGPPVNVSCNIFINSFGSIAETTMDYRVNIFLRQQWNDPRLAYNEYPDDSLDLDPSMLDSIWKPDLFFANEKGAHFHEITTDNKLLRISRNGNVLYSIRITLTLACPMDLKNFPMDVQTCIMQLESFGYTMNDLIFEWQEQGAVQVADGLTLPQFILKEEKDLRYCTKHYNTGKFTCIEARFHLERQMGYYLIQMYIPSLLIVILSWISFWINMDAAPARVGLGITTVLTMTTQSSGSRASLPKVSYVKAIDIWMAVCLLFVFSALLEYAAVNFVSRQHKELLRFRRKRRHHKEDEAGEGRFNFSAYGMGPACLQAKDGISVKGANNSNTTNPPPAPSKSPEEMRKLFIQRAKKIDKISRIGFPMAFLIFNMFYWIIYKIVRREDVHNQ
Protocol: (§1) HEK293 cells were obtained from Beijing Aisiyipu Biotechnology Co. Cells were cultured in Dulbecco’s Modified Eagle Medium containing 10% fetal bovine serum, 800 µg/mL G418, 200 µg/mL hygromycin B, and 100 µg/mL Zeocin at 37 °C and 5% CO2. Cells were transfected with plasmids encoding the following proteins: (i). nAChRα7 (CHRNA7, NM_000746; RIC3, NM_024557), (ii) GABA-α1 (NM_000806), GABA-β2 (NM_021911), and GABA-γ2 (NM_198904), and (iii) GlyR α1 (NM_000171) and GlyR β (NM_000824). To obtain β-containing GlyRs, an α/β transfection ratio of 1:5 was used; for γ2-containing GABAARs, the ratio was 1:2:5 of α/β/γ2.
(§2) For whole-cell recording, the […] contained 140 mM NaCl, 3.5 mM KCl, 1 mM MgCl2•6H2O, 2 mM CaCl2•2H2O, 10 mM D-glucose, 10 mM HEPES, and 1.25 mM NaH2PO4•2H2O, (pH 7.4). The […] solution contained 50 mM CsCl, 10 mM NaCl, 10 mM HEPES, 60 mM CsF, and 20 mM EGTA (pH 7.2). Briefly, during the diaphragm clamp operation, the glass capillary was drawn into a recording electrode using a microelectrode puller. Subsequently, the electrode filled with intracellular fluid was loaded into the microelectrode holder, and the cell-lined coverslip was placed in the recording bath under an inverted microscope, followed by manipulation of the microelectrode manipulator to immerse the electrode into the extracellular fluid under an inverted microscope. Electrode resistance (Rpip) was recorded, and the electrode was gently positioned on the cell surface with negative pressure applied to establish a GΩ-level high-resistance seal. Fast capacitance compensation was performed, followed by additional suction to breach the cell membrane and form a whole-cell recording. Finally, slow capacitance compensation was performed, and experimental parameters such as series resistance (Rs) were recorded. Leakage compensation was not provided. Whole-cell patch-clamp recordings were performed at −70 mV using HEKA EPC-10 (HEKA Elektronik GmbH, Reutlingen, Germany) amplifiers. Data acquisition was performed using the HEKA PatchMaster. We aimed to study the allosteric regulation of GABAAR and GlyR by Gelsemium alkaloids, so the effects of the alkaloids on Gly- or GABA-evoked currents were determined via co-application of subsaturated agonist concentrations (EC10 and EC50) together with the alkaloid. The EC50 for α1 GlyR was 30 µM, whereas the EC10 for α1β2γ2 GABAAR was 3.0 µM. The choice of specific agonist concentration was determined based on previous studies. We first examined the effects of each Gelsemium alkaloid at a concentration of 300 µM on channel currents. The peak receptor currents for subsaturated concentrations of specific agonists and the peak receptor currents after administration of each drug were recorded, and the modulation percentage was calculated for each drug. The modulation percentage was calculated using Equation (1):Percentage change = ((Ialkaloid − Iagonist)/Iagonist),(1) where Ialkaloid denotes the current in the presence of a given concentration of alkaloid, and Iagonist denotes the amplitude of the control glycine or GABA current elicited by the activation of a given receptor. To construct the concentration-response curve, six graded concentrations (1 µM, 3 µM, 10 µM, 30 µM, 100 µM, and 300 µM) of each Gelsemium alkaloid were tested. The concentration-response curve parameters for alkaloid inhibition were obtained from the curve of the normalized concentration-response data points fitted using Equation (2):Iagonist = Imax (agonist)nH/((agonist)nH + (EC50) nH), (2) where Iagonist is the current in the presence of a given subsaturated concentration of GABA, and EC50 is the concentration required for the half-maximal response. Each drug was repeated four times per concentration, and the data were expressed as the mean ± SE All electrophysiological tests performed at 20 °C.

α1β GlyR = target: T3, α1β GlyR (Homo sapiens, UniProt P23415); assay: as above; type: cell-based; conditions: α1βGlyR; alkaloid 300 µM co-applied with subsaturated glycine; mean ± SE
T3 construct: expressed in transfected cells; host or cells: HEK293
Protocol: as §1, §2

nAChRα7 = target: T4, nAChRα7 (Homo sapiens, UniProt P36544); assay: Whole-cell patch-clamp of acetylcholine ion channel currents, transfected HEK293 cells; type: cell-based; conditions: nACHR; alkaloid 300 µM; mean ± SE
T4 construct: expressed in transfected cells; host or cells: HEK293
Protocol: as §1
For whole-cell recording, the […] contained 140 mM NaCl, 3.5 mM KCl, 1 mM MgCl2•6H2O, 2 mM CaCl2•2H2O, 10 mM D-glucose, 10 mM HEPES, and 1.25 mM NaH2PO4•2H2O, (pH 7.4). […] Electrode resistance (Rpip) was recorded, and the electrode was gently positioned on the cell surface with negative pressure applied to establish a GΩ-level high-resistance seal. […] Finally, slow capacitance compensation was performed, and experimental parameters such as series resistance (Rs) were recorded. […] We aimed to study the allosteric regulation of GABAAR and GlyR by Gelsemium alkaloids, so the effects of the alkaloids on Gly- or GABA-evoked currents were determined via co-application of subsaturated agonist concentrations (EC10 and EC50) together with the alkaloid. […]

GABAAR = tested on: GABAAR; design: method as in PMID 32541553, PMID 32391682; conditions: read-out: EC50 for positive allosteric modulation of GABAAR; cited from earlier work
GlyR = conditions: read-out: IC50 for GlyR; cited from earlier work
[1] = α1GlyR, reduction of glycine-evoked current, n = 4, read-out: IC50

T1 sequence (P18507 40-475): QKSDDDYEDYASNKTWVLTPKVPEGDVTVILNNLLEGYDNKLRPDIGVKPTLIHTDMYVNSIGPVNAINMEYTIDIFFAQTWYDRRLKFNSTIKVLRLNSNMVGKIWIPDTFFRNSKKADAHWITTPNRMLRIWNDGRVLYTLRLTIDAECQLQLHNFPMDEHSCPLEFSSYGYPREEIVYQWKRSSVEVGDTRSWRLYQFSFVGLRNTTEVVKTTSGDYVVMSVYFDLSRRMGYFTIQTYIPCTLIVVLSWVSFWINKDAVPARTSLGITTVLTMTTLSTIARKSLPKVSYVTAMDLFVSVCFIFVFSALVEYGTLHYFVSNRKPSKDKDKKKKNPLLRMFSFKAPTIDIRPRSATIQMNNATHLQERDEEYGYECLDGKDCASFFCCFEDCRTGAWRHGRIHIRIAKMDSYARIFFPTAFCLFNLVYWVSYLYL
T1 sequence (P14867 28-456): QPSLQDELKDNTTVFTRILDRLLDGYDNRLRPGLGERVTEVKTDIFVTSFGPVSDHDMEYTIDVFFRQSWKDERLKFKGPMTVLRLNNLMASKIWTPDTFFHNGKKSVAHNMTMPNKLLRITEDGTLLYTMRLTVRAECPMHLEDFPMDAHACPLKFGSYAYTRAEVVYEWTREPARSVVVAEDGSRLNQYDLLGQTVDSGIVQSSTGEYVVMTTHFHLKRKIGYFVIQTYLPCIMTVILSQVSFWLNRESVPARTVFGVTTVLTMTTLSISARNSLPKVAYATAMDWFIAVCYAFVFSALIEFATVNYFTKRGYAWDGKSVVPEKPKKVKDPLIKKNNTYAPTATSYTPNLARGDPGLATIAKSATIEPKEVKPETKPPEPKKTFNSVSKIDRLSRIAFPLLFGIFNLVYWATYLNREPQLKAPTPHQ
T1 sequence (P47870 26-512): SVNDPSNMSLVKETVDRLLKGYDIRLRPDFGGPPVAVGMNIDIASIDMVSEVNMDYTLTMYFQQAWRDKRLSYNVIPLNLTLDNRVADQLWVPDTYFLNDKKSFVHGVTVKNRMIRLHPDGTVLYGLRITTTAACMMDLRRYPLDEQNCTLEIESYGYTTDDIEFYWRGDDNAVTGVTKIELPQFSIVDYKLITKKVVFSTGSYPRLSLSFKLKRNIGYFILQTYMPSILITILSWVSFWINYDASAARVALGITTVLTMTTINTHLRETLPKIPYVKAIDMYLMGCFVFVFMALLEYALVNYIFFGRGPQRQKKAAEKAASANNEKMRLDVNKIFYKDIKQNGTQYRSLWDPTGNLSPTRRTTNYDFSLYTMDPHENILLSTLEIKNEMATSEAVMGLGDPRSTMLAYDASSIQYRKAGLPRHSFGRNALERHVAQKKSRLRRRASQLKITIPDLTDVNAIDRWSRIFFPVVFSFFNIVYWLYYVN
T3 sequence (P48167 23-497 partner, one chain of several): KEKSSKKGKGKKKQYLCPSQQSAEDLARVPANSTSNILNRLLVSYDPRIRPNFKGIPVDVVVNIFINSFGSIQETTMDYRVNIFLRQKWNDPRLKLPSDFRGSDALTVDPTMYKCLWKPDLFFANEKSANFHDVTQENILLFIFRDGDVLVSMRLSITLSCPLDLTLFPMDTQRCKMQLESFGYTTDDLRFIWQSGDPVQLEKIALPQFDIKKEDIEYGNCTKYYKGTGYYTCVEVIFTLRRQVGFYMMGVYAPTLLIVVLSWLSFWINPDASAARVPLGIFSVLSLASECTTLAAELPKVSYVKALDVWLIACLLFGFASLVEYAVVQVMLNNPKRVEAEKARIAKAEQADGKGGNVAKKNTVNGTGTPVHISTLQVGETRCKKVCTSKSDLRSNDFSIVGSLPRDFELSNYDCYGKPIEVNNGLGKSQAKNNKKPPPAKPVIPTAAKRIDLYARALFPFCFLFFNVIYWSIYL
T4 sequence (P36544 23-502): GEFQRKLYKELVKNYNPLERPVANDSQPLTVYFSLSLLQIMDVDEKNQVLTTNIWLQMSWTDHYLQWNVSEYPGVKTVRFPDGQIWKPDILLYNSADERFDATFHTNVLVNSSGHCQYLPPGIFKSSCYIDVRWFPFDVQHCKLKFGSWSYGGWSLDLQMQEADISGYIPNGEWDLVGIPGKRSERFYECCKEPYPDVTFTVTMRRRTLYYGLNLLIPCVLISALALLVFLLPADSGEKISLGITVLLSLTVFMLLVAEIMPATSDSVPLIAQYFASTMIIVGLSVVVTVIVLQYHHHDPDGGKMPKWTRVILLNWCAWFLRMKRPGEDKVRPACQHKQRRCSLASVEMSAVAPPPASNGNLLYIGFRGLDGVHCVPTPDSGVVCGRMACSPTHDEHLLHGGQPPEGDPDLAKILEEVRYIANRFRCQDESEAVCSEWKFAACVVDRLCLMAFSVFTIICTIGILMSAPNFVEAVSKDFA

Row | Compound | Hillslope (α1β2γ2 GABAAR) | percentage change in peak current modulation (α1β2γ2 GABAAR) | IC50 (α1β2γ2 GABAAR) [µM] | IC50 (α1 GlyR) [µM] | activity on GlyR currents (in words) (α1 GlyR) | percentage change in peak current modulation (α1 GlyR; α1GlyR) | percentage change in peak current modulation (α1β GlyR) | EC50 (α1β2γ2 GABAAR) [µM] | percentage change in peak current modulation (nAChRα7) | IC50 (α1 GlyR; [1]) [µM] | EC50 (GABAAR) [µM] | IC50 (GlyR) [µM]
1 | C=C[C@]12CN(C)[C@@H]3[C@H]4CO[C@H](C[C@H]41)[C@]1(C(=O)Nc4ccccc41)[C@@H]32 [Gelsemine, gelsemine] | −0.9158 | −58.78% ± 1.74% | 171 | 10.4 | strong activity | −70.39% ± 4.85% | −92.18% ± 2.87% |  |  |  |  | 
2 | CCC1=N[C@H]2C[C@@]3(C(=O)N(OC)c4ccccc43)[C@H]3C[C@@H]1[C@@H]2CO3 [Gelsenicine, gelsenicine] | 0.8002 | 58.63% ± 5.56% |  |  | minimal effect | −13.64% ± 4.34% | −10.44% ± 5.99% | 192 |  |  |  | 
3 | C=C[C@]12CN(C)[C@@H]3[C@H]4CO[C@H](C[C@H]41)[C@]1(C(=O)N(OC)c4ccccc41)[C@@H]32 [Gelsevirine, gelsevirine] | −1.110 | −55.82% ± 0.35% | 252 |  | strong activity | −98.89% ± 0.68% | −99.06% ± 0.62% |  | 0.75% ± 0.65% | 82.9 |  | 
4 | C=C[C@@]12CN(C)[C@H]3C[C@]14C(=Nc1ccccc14)[C@H]1C[C@@H]2[C@@H]3CO1 [Koumine, koumine] |  |  |  |  | strong activity | −95.53% ± 0.70% | −87.29% ± 0.52% |  | 1.42% ± 0.00% | 9.59 |  | 
5 | CN1C(=O)CN=C(c2ccccc2)c2cc(Cl)ccc21 [diazepam] |  |  |  |  |  |  |  |  |  |  | ~0.005 | 
6 | O=C1C[C@@H]2OCC=C3CN4CC[C@]56c7ccccc7N1[C@H]5[C@H]2[C@H]3C[C@H]46 [strychnine] |  |  |  |  |  |  |  |  |  |  |  | ~0.18
7 | humantenirine |  | 41.66% ± 0.53% |  |  | minimal effect | −11.75% ± 4.34% | −16.82% ± 4.41% |  |  |  |  | 
